Residual activity and inhibition data for two compounds are collected here from ChEMBL document CHEMBL4507268 (2021).

In general, inhibition refers to the drop in the measured response relative to a control, in per cent.

The target of test [1] is Serine/threonine-protein kinase MARK1 (Homo sapiens) (UniProt Q9P0L2). As to conditions: Compound concentration 1000.0 nM.
The target in test [2] is Citron Rho-interacting kinase (Homo sapiens) (UniProt O14578). Particulars: Compound concentration 1000.0 nM.
In test [3] the target is Serine/threonine-protein kinase PAK 6 (Homo sapiens) (UniProt Q9NQU5). As to conditions: Compound concentration 1000.0 nM.
Sequence of Serine/threonine-protein kinase PAK 6 (Homo sapiens) (Q9NQU5 whole entry, looked up): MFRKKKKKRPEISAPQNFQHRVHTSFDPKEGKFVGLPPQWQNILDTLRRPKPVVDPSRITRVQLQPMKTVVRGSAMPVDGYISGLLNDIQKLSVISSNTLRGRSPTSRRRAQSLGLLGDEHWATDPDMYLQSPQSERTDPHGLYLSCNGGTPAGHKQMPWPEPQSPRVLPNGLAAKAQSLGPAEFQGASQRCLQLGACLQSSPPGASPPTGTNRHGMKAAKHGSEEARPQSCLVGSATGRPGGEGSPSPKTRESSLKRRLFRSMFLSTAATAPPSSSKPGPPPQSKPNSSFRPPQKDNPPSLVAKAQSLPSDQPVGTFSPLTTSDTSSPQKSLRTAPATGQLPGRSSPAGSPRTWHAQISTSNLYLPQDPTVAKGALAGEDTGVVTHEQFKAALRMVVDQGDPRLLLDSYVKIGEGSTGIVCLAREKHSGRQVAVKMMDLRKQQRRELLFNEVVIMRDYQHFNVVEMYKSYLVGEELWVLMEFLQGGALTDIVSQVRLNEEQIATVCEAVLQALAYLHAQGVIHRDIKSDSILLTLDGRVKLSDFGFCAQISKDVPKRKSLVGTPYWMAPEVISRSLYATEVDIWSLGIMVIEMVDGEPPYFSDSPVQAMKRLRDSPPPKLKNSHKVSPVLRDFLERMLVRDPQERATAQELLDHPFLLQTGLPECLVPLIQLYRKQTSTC
For test [4], the target named is Sigma intracellular receptor 2 (Homo sapiens, UniProt Q5BJF2). Particulars: Compound concentration 10.0 uM.
Sequence of Sigma intracellular receptor 2 (Q5BJF2 whole entry): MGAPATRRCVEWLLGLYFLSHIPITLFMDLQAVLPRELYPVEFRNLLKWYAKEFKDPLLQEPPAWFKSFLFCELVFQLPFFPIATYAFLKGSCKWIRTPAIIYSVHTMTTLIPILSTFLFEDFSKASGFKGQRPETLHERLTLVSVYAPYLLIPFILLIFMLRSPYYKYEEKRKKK
Test [5] deals with T1, Ephrin type-A receptor 8 (Homo sapiens) (UniProt P29322).
T1 sequence (whole entry): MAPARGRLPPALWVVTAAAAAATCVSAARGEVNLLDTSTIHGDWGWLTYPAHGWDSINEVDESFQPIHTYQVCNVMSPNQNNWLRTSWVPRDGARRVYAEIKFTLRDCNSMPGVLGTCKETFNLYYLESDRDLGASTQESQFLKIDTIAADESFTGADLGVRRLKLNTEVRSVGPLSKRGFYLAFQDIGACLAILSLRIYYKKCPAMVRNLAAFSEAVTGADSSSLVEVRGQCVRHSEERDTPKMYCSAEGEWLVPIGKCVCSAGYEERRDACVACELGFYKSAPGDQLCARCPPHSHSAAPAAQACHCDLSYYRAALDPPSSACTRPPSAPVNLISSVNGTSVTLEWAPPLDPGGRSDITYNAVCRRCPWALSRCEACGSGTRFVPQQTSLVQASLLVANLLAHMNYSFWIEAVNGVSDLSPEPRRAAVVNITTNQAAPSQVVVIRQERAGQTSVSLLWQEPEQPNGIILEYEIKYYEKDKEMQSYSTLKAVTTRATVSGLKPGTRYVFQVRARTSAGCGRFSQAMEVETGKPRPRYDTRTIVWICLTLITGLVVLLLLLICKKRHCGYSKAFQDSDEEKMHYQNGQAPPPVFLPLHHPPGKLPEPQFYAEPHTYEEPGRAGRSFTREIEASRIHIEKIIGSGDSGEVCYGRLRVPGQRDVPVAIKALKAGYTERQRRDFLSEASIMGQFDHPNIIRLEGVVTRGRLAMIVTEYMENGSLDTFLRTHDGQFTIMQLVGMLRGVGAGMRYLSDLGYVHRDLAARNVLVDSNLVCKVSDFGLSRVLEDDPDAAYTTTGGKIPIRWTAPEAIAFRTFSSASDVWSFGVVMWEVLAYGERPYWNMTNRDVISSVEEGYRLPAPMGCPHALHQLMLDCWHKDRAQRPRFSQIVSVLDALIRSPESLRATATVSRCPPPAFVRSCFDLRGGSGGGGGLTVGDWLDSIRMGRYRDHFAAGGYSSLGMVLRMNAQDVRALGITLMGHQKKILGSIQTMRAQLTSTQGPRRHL
As to conditions: Compound concentration 1000.0 nM.

Test [6] deals with Membrane-associated tyrosine- and threonine-specific cdc2-inhibitory kinase (Homo sapiens) (UniProt Q99640). Particulars: Compound concentration 1000.0 nM.
The target of test [7] is Mitogen-activated protein kinase kinase kinase 1 (Homo sapiens) (UniProt Q13233). As to conditions: Compound concentration 1000.0 nM.
Sequence of Mitogen-activated protein kinase kinase kinase 1 (Homo sapiens) (Q13233 whole entry): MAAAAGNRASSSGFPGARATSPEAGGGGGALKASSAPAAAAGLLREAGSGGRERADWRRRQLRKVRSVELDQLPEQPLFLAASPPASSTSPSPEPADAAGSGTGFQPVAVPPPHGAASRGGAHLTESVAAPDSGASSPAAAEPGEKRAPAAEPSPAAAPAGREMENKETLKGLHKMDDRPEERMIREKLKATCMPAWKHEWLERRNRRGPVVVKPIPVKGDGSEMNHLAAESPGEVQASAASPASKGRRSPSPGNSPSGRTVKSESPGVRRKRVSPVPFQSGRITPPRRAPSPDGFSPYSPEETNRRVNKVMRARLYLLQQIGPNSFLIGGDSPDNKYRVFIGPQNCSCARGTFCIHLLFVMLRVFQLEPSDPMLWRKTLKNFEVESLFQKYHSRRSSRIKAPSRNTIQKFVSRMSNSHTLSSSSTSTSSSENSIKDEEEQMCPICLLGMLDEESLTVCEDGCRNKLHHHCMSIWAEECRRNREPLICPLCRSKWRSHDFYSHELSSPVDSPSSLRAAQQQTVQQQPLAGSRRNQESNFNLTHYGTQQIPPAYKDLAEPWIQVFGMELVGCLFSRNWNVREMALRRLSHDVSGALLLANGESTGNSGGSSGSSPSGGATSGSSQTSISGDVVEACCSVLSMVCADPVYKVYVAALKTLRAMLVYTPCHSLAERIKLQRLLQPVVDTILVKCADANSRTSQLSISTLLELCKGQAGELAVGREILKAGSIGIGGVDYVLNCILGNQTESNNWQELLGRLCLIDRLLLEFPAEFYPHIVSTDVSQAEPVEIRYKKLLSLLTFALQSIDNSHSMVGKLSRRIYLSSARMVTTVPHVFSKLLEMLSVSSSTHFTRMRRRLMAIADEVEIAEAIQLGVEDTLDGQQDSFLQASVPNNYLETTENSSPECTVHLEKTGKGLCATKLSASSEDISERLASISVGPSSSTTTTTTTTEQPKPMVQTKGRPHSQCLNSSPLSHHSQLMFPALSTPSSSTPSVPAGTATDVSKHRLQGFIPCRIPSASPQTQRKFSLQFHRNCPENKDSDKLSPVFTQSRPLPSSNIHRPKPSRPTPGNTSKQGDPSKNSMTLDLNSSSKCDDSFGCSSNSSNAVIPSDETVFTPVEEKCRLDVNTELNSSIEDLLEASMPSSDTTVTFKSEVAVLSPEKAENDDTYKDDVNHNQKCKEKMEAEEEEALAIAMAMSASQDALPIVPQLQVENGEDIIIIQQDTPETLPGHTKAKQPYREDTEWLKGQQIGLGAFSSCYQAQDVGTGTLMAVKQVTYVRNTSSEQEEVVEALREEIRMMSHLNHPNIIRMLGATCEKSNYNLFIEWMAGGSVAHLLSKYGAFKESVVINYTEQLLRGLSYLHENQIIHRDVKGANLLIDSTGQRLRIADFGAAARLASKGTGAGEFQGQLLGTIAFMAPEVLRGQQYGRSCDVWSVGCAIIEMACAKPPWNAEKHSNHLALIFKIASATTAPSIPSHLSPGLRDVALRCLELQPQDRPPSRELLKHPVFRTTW
The target in test [8] is Serine/threonine-protein kinase N1 (Homo sapiens) (UniProt Q16512). As to conditions: Compound concentration 1000.0 nM.
Sequence of Serine/threonine-protein kinase N1 (Homo sapiens) (Q16512 2-942 limits assumed): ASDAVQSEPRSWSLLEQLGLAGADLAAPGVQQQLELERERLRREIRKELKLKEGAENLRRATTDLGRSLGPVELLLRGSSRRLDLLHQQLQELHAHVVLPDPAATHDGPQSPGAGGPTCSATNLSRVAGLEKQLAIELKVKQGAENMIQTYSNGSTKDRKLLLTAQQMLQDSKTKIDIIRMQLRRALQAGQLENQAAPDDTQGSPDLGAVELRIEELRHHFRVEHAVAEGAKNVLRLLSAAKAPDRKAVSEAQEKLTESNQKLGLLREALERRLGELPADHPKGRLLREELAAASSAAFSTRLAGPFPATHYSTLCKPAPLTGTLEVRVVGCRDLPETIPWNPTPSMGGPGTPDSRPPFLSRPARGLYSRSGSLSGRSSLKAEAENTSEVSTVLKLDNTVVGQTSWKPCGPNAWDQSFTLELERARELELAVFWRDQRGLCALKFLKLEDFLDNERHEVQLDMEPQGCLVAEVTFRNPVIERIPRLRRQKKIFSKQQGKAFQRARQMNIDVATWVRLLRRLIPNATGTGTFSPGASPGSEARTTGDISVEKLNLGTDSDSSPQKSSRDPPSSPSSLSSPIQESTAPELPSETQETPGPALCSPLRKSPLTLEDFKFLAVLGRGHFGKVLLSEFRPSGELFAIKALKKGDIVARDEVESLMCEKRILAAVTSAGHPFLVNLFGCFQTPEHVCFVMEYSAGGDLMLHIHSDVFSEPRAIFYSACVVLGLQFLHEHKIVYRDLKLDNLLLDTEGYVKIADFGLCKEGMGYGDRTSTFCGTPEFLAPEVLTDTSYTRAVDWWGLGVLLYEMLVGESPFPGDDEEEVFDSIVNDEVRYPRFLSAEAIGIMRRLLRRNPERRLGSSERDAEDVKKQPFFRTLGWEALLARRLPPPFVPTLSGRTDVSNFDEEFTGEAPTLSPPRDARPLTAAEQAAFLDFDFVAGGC
The target of test [9] is Tyrosine-protein kinase BTK (Homo sapiens) (UniProt Q06187). Particulars: Compound concentration 1000.0 nM.
Test [10] addresses T2, Beta-adrenergic receptor kinase 1 (Homo sapiens) (UniProt P25098).
T2 sequence (whole entry): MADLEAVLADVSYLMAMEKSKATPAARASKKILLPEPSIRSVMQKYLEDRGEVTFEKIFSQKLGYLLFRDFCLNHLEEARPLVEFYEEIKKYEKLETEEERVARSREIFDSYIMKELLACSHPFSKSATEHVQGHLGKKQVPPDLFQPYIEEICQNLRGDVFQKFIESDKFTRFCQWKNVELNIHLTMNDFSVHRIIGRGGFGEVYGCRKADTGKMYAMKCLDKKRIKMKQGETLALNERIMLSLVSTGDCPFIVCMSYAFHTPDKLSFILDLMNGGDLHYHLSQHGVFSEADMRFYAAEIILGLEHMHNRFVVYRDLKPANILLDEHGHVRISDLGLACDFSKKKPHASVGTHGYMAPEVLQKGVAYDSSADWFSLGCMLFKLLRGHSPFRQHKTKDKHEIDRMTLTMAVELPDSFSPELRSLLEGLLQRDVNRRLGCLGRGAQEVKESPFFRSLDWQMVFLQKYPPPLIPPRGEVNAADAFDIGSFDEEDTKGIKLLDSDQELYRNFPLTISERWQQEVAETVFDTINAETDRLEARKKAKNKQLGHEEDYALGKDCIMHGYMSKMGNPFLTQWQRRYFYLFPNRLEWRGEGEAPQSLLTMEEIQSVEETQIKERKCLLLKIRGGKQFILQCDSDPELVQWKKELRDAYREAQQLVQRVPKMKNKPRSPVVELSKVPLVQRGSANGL
As to conditions: Compound concentration 1000.0 nM.

Test [11] deals with Tyrosine-protein kinase Fes/Fps (Homo sapiens) (UniProt P07332). As to conditions: Compound concentration 1000.0 nM.
The target in test [12] is Tyrosine-protein kinase Blk (Homo sapiens) (UniProt P51451). As to conditions: Compound concentration 1000.0 nM.
Test [13] has as its target Tyrosine-protein kinase SYK (Homo sapiens) (UniProt P43405). As to conditions: Compound concentration 1000.0 nM.
Test [14] concerns the target Receptor tyrosine-protein kinase erbB-2 (Homo sapiens) (UniProt P04626). As to conditions: Compound concentration 1000.0 nM.
The target in test [15] is 5-hydroxytryptamine receptor 5A (Homo sapiens) (UniProt P47898). As to conditions: Compound concentration 10.0 uM.
Sequence of 5-hydroxytryptamine receptor 5A (Homo sapiens) (P47898 whole entry): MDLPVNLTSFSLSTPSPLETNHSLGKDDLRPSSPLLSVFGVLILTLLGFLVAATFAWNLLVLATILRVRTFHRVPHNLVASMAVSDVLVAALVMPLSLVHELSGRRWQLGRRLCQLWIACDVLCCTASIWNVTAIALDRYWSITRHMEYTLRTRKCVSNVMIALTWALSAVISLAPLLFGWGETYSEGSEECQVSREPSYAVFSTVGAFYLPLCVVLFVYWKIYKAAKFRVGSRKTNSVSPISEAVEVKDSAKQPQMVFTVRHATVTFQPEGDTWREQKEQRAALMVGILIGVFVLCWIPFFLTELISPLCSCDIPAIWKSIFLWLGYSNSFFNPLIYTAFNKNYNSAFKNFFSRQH
Test [16] concerns the target Serine/threonine-protein kinase pim-2 (Homo sapiens) (UniProt Q9P1W9). Particulars: Compound concentration 1000.0 nM.
In test [17] the target is Casein kinase I isoform gamma-2 (Homo sapiens) (UniProt P78368). As to conditions: Compound concentration 1000.0 nM.
Sequence of Casein kinase I isoform gamma-2 (Homo sapiens) (P78368 whole entry, looked up, canonical isoform): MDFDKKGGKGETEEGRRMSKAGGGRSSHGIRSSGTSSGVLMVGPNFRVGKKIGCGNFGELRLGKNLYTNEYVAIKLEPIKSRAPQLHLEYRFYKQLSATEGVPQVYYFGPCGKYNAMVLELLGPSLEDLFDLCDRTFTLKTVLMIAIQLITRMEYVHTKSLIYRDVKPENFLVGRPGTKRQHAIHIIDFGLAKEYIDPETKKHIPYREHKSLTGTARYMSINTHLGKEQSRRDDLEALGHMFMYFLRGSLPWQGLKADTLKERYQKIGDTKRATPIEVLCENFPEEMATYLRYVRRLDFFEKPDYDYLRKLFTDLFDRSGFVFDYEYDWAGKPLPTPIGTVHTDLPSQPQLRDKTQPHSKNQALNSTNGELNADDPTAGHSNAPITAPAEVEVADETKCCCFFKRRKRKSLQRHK

Sequence of Serine/threonine-protein kinase MARK1 (Homo sapiens) (Q9P0L2 whole entry, looked up): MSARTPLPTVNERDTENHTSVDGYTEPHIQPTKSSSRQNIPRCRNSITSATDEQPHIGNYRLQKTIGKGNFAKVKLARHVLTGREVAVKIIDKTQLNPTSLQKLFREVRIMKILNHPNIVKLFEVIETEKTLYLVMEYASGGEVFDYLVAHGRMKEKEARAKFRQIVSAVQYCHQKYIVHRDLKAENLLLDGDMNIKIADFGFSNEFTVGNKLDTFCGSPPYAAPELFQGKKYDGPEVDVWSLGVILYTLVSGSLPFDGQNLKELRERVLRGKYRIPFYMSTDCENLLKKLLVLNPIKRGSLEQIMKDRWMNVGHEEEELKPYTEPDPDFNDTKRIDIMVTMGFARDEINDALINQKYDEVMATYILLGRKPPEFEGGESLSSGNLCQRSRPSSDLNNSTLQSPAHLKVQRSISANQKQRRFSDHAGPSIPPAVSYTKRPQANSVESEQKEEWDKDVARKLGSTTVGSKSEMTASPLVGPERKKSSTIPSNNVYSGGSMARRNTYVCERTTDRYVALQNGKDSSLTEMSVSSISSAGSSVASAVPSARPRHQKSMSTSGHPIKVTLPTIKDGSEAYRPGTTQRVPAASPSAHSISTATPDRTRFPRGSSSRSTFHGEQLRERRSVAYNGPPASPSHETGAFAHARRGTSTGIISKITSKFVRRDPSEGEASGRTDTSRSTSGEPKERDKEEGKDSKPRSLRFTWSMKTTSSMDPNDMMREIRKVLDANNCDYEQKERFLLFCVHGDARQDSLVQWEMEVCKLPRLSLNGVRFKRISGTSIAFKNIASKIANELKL

For the compound `Cc1nc(C2CCN(C(=O)c3ccc(OC(F)(F)F)cc3N)CC2)c2ncc(N3CCN(C)CC3)cc2n1` [BAY-693], the residual activity in [1] is 100%; in test [2], 100%; in test [3], 93%; in test [5] it was 98%; in test [6], 100%; in test [7] it was 82%. The residual activity in test [8] was 100%; in test [9] it was 87%; in test [10], 92%; in test [11], 96%; in test [12], 97%; in [13], 98%. Further, the results for the residual activity in test [14], in [16] and in test [17] were 100%, 100% and 93%, respectively. In addition, the inhibition in [4] is 51.4%; in test [15], -3.74%.

`CN1CCN(c2cnc3c(C4CCN(C(=O)c5ccc(OC(F)(F)F)cc5N)CC4)ncnc3c2)CC1` [BAY-885]: the residual activity in test [1], in test [2], in [3], in test [5], in [6] and in [7] was 100% throughout. Besides, the residual activity in [8] is 100%; in test [9] it was 100%; in [10], 100%; in [11], 100%; in [12] it was 91%; in test [13], 100%. For the same compound, the residual activity in test [14], in test [16] and in test [17] was 100% throughout. For the same compound, the inhibition in test [4] is 30.9%; in test [15], -1.47%.
